Reference: US20150283127A1, “SAQUINAVIR-NO FOR IMMUNOMODULATION” (ONCONOX APS, priority 2012, published 2015)

Columns and labels:
[1] = system: murine SPC; assay: Cytokine generation (ELISA) in ConA-stimulated murine SPC; format: cell-based, mouse; settings: for Effects on cytokines at low concentrations: unfractionated spleen cells and/or purified murine CD4 T cells, concentrations of 2.5 and 5 mM
Text: Experimental animals (C57BL/6 mice, BALB/c mice and Dark Agouti rats) were obtained from the Animal House Facility of the Institute for Biological Research “Sinisa Stanković”, Belgrade, Serbia. Spleen cells (SPC) were isolated from murine spleens and lymph node cells (LNC) were obtained from rat cervical lymph nodes of untreated animals. Draining lymph node cells (DLNC) were obtained from popliteal lymph nodes 8-10 days after immunization of rats with myelin basic protein (guinea pig MBP, kind gift from professor Alexander Fluegel, University of Goettingen, Germany) and complete Freund's adjuvant (CFA, Difco, Detroit, Mich.). The organs were mechanically disrupted, passed through 40-μm nylon mesh filter and the resulting suspension was collected by centrifugation. Red blood cells from single cell suspensions obtained from spleens were lysed using RBC Lysis Buffer (eBioscience, San Diego, Calif.). CD4+ cells were purified from SPC using biotin conjugated antibody specific for CD4 (eBioscience) and IMag SAv particles plus (BD Biosciences, San Diego, Calif.). Obtained purity of CD4 population was more than 97% as determined by flow cytometry. SPC and LNC were seeded at 5×10^6/ml/well, DLNC at 2.5×10^6/ml/well and CD4+ cells at 1×10^6/ml/well of 24-well plates. Cells infiltrating spinal cords (SC) were obtained from SC of rats immunized with MBP+CFA at the time when rats suffered from severe clinical signs of experimental autoimmune encephalomyelitis (EAE). Rats were perfused with sterile PBS, SC were homogenized, adjusted to 30% Percoll (Sigma-Aldrich) and overlaid on 70% Percoll gradient. Following centrifugation at 870 g for 50 min the SC cells (SCC) were recovered from the […] Percoll interface and washed in RPMI-1640 medium. SCC were seeded at 0.5×106/200 μl/well of 96-well plates. SPC and LNC were stimulated with 2.5 μg/ml concanavalin A (ConA, Sigma-Aldrich), DLNC with MBP (10 ng/ml), CD4+ cells with anti-CD3 and anti-CD28 antibody (1 μg/ml each, both from eBioscience) and SCC were left untreated.
Cytokine concentration in cell culture supernatants was determined by sandwich ELISA using MaxiSorp plates (Nunc, Rochild, Denmark) and anti-cytokine paired antibodies according to the manufacturer's instructions. Samples were analyzed in duplicate for murine/rat IL-17, murine IL-10, murine TNF, murine IL-4 (eBioscience), murine IFN-γ, rat IFN-γ, rat IL-4 (R&D, Minneapolis, Minn.), rat IL-10 and rat TNF (BD Biosciences). The results were calculated using standard curves made on the basis of known concentrations of the appropriate recombinant cytokines.
In order to investigate the potential of Saq-NO to modulate cytokine production in immune cells, rat LNC were stimulated with ConA in the presence of various concentrations of Saq-NO for 24 hours and the levels of IFN-g, IL-4, IL-17, IL-10 and TNF were determined in cell-free culture supernatants. […] Effects of Saq-NO on the cytokine generation were examined in murine SPC, as well. Here, Saq-NO was applied in parallel with Saq and their influence on the cytokine generation and cell viability was compared. Further, two strains of mice were used, i.e. BALB/c and C57BL/6 mice which are prototypical Th2 and Th1 mice, respectively (Lohoff et al., 1998). […] Moreover, the influence of Saq-NO on the cytokines was evident with concentrations of the agent that had no effect on SPC viability (FIG. 2).

[2] = system: MOG-induced EAE; assay: MOG-induced EAE in C57Bl6 mice; format: in vivo; settings: for Clinical course of the disease: day 7 to 30; for Disease after interruption of the late prophylactic treatment: observed for further 11 days
Text: (§1) Seven to 8 weeks-old male C57Bl6 mice and 6 to 7 weeks-old female SJL mice (Harlan Laboratories srl, San Pietro al Natisone, Udine, Italy) were used in the experiments. They were kept under standard laboratory conditions (non specific pathogen free) with free access to food (Harlan Global Diet 2018) and water and were allowed to adapt at least one week to their environment before commencing the study.
MOG35-55 was synthesized by Genemed synthesis (San Francisco Calif.). The mice were immunized with 200 μg MOG emulsified in CFA with 1 mg of Mycobacterium tuberculosis H37RA (Difco, Detroit, Mich., USA) to make a 1:1 emulsion. Each mouse received subcutaneous injections of 200 μl emulsion divided among two sites draining into the axillary lymph nodes. Pertussis toxin (Calbiochem, Nottingham, UK) was used as a coadjuvant and was administered i.p. at the dose of 200 ng/mouse on day 0 and 2 post immunization. The mice were observed every day by measuring their body weights and clinical signs of EAE until 30 days after immunization. These clinical grading were carried out by an observer unaware of the treatment: 0=no sign of disease; 0.5=partial tail paralysis; 1=tail paralysis; 1.5=tail paralysis+partial unilateral hindlimb paralysis; 2=tail paralysis+hindlimb weakness or partial hindlimb paralysis; 2.5=tail paralysis+partial hindlimb paralysis (lowered pelvi); 3=tail paralysis+complete hindlimb paralysis; 3.5=tail paralysis+complete hindlimb paralysis+incontinence; 4=tail paralysis+hindlimb paralysis+weakness or partial paralysis of forelimbs; 5=moribund or dead.
The study involved 4 groups of 10 animals each. All the groups were immunized with the MOG35-55 peptide in CFA and pertuxis toxin, according to the immunization procedure described above and assigned to the following treatments:
The late prophylactic treatment started on day 7 immunization and continued until day 30; the therapeutic regime started at the onset of the disease and continued for 23 consecutive days.

[3] = system: PLP-induced EAE; assay: PLP-induced EAE in SJL mice; format: in vivo
Text: as §1
PLP (139-151) was synthesized by Genemed synthesis (San Francisco Calif.). EAE was induced as described by J. St. Louis et al. (4). The mice were immunized with 75 μg PLP emulsified in CFA with 6 mg/ml Mycobacterium tuberculosis H37RA (Difco, Detroit, Mich., USA) to make a 1:1 emulsion. Each mouse received subcutaneous injections of 200 μl emulsion divided among four sites draining into the axillary and inguinal lymph nodes. Pertussis toxin (Calbiochem, Nottingham, UK) was used as a co-adjuvant and was administered i.p. at the dose of […] on day 0 and 2 post immunization. The mice were observed every day by measuring their body weights and clinical signs of EAE until 30 days after immunization. These clinical grading were carried out by an observer unaware of the treatment: 0=no sign of disease; 0.5=partial tail paralysis; 1=tail paralysis; 1.5=tail paralysis+partial unilateral hindlimb paralysis; 2=tail paralysis+hindlimb weakness or partial hindlimb paralysis; 2.5=tail paralysis+partial hindlimb paralysis (lowered pelvi); 3=tail paralysis+complete hindlimb paralysis; 3.5=tail paralysis+complete hindlimb paralysis+incontinence; 4=tail paralysis+hindlimb paralysis+weakness or partial paralysis of forelimbs; 5=moribund or dead.
Four groups of 7/8 mice were treated under a late prophylactic regime from day 7 to day 30 as follow:
Group 1: Saquinavir 10 mg/Kg (i.p. once daily)
Group 2: Saq-NO 10 mg/Kg (s.c. once daily)
Group 3: Saq-NO 20 mg/Kg (i.p. once daily)
Group 4: DMSO/H2O (vehicle) (i.p. once daily)

[4] = late prophylactic treatment, 10 mg/Kg i.p. daily
[5] = late prophylactic, 10 mg/Kg once daily

Compound	Effects on cytokines at low concentrations [1]	Clinical course of the disease [2, 4]	Disease after interruption of the late prophylactic treatment [2]	Cumulative score and duration of the disease compared to vehicle treated mice [3, 5]	Production of IFN-g, IL-4, IL-17, TNF ([1]; murine SPC)	Production of IL-10 ([1]; murine SPC)	Effect on the release of IFN-g, IL-4, IL-17, IL-10 and TNF, compared with Saq ([1]; murine SPC of BALB/c and C57BL/6 mice, ConA)	Cumulative score and duration of the disease compared to vehicle treated mice ([2]; full therapeutic regime, 10 mg/Kg i.p. daily from onset, 23 days)	Time after treatment interruption to reach the clinical score of vehicle treated mice ([2]; late prophylactic treatment interrupted) [days]	Cumulative score and duration of the disease compared to vehicle treated mice [2, 4]	Clinical course of the disease ([3]; late prophylactic, 10 mg/Kg once daily, day 7 to 30)	Cum score and duration compared to vehicle-treated mice ([3]; late prophylactic, high dose 20 mg/Kg i.p. once daily)	Disease after interruption of the treatment ([3]; observed for further 20 days)
CC(C)(C)NC(=O)[C@@H]1C[C@@H]2CCCC[C@@H]2CN1C[C@@H](O)[C@H](Cc1ccccc1)NC(=O)[C@H](CC(N)=O)NC(=O)c1ccc2ccccc2n1 [Saq, (2S)—N-[(2S,3R)-4-[(3S)-3-(tert-butylcarbamoyl)-decahydroisoquinolin-2-iy]-3-hydroxy-1-phenylbutan-2-il]-2-(quinolin-2-ylformamido)butanediamide, reference compound]	No effects	slightly reduced	maintained the same severity of the disease	lower but not significant	–	–	–	–	–	–	–	–	–
CC(C)(C)NC(=O)C1C[C@@H]2CCCC[C@@H]2CN1CC(O[N+](=O)[O-])[C@H](Cc1ccccc1)NC(=O)C(CC(N)=O)NC(=O)c1ccc2ccccc2n1 (some centres unmarked) [Saq-NO, nitric ester of Saquinavir]	already observable	ameliorated	developed a strong disease	significantly lower	inhibited	stimulated	more profound effect	significant reduction	≤ 9	significantly lower	ameliorated	lower but not significant	most evidently
